Values belong to the molecule of their own block, whether it stands above or below them.
Columns and labels:
[1] = target: Mast/stem cell growth factor receptor Kit (Homo sapiens, UniProt P10721)
[2] = target: Platelet-derived growth factor receptor beta (Homo sapiens, UniProt P09619)
[3] = target: Vascular endothelial growth factor receptor 2 (Homo sapiens, UniProt P35968)
[4] = tested on: BXPC-3; test: Ratio of sunitinib IC50 to compound IC50 for human BxPC3 cells; type: functional
[5] = tested on: HepG2; test: Antiproliferative activity against human HepG2 cells after 72 hrs by MTT assay; type: functional, cell-based; conditions: HepG2, 72 h
[6] = tested on: T-24; test: Antiproliferative activity against human T24 cells after 72 hrs by MTT assay; type: functional, cell-based; conditions: T-24, 72 h
[7] = tested on: HT-29; test: cells; conditions: Homo sapiens, HT-29, 72 h
[8] = cells; conditions: Homo sapiens, BGC, 72 h
[9] = tested on: BXPC-3; test: cells; conditions: Homo sapiens, BXPC-3, 72 h
[10] = Oral bioavailability in cynomolgus monkey; type: ADME, organism-based, Macaca fascicularis; conditions: in vivo
[11] = target: Vascular endothelial growth factor receptor 3 (Homo sapiens, UniProt P35916); test: Inhibition of VEGFR3 (unknown origin)
[12] = target: Vascular endothelial growth factor receptor 1 (Homo sapiens, UniProt P17948); test: Inhibition of VEGFR1 (unknown origin)
Chain of Vascular endothelial growth factor receptor 1 (P17948 whole entry): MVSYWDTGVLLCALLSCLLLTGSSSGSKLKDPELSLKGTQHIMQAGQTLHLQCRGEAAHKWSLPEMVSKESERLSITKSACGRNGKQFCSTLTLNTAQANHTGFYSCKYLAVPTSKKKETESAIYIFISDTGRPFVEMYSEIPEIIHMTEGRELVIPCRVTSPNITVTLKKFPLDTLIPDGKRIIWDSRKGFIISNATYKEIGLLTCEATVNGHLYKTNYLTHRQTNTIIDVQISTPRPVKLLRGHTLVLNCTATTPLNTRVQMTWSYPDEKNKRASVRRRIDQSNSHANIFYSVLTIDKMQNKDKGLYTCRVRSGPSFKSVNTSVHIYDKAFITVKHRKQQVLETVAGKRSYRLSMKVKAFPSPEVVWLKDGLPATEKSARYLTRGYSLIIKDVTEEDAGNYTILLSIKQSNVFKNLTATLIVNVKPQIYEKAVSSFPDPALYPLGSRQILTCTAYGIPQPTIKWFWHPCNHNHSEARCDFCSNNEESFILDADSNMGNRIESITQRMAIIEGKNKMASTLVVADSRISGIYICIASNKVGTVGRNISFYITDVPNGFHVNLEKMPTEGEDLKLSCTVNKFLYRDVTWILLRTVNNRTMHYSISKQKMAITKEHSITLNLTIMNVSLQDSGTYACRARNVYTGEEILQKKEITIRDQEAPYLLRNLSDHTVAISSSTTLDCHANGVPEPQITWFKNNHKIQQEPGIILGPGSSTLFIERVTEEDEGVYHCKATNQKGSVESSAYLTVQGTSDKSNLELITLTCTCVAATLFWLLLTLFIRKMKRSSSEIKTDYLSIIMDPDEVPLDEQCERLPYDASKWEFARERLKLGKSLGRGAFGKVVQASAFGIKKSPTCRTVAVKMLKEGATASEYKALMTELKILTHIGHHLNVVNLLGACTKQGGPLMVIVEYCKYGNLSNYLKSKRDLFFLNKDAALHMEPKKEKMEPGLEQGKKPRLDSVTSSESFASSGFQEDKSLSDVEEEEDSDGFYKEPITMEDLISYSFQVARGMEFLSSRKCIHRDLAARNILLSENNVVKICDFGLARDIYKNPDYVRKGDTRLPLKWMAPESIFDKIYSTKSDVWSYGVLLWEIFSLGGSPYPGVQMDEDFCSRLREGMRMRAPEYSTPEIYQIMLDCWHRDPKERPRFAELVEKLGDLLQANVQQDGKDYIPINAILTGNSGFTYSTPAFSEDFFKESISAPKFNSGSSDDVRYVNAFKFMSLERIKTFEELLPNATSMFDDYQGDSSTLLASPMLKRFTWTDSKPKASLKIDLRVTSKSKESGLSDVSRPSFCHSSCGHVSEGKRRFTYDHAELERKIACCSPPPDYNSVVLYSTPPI

Chain of Platelet-derived growth factor receptor beta (P09619 whole entry): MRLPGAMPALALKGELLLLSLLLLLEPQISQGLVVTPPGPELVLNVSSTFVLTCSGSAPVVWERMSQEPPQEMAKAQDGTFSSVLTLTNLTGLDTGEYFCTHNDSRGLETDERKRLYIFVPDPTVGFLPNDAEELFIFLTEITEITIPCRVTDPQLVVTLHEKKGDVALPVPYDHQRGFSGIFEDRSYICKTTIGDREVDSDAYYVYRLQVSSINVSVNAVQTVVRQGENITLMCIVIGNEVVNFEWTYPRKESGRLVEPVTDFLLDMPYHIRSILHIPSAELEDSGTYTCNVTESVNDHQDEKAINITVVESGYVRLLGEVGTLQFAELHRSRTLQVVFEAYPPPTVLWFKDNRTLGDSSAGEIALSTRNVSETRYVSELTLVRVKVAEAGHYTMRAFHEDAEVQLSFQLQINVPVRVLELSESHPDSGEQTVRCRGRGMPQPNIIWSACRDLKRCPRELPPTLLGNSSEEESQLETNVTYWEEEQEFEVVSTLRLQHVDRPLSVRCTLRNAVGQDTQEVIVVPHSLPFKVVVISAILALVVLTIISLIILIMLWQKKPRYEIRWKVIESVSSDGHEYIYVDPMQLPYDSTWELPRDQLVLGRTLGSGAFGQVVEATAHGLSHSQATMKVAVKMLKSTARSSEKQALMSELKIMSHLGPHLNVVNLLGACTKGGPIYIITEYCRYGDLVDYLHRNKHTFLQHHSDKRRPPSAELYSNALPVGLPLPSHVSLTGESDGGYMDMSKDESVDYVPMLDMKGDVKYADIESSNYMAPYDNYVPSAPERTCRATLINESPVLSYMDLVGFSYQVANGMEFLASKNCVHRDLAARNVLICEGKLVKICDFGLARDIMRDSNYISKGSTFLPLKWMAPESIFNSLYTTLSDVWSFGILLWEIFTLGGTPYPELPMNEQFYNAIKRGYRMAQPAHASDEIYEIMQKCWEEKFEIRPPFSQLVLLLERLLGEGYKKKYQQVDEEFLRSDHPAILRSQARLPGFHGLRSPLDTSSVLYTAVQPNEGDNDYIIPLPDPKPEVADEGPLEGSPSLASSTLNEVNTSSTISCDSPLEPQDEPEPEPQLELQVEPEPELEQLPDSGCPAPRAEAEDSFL
Chain of Mast/stem cell growth factor receptor Kit (P10721 whole entry): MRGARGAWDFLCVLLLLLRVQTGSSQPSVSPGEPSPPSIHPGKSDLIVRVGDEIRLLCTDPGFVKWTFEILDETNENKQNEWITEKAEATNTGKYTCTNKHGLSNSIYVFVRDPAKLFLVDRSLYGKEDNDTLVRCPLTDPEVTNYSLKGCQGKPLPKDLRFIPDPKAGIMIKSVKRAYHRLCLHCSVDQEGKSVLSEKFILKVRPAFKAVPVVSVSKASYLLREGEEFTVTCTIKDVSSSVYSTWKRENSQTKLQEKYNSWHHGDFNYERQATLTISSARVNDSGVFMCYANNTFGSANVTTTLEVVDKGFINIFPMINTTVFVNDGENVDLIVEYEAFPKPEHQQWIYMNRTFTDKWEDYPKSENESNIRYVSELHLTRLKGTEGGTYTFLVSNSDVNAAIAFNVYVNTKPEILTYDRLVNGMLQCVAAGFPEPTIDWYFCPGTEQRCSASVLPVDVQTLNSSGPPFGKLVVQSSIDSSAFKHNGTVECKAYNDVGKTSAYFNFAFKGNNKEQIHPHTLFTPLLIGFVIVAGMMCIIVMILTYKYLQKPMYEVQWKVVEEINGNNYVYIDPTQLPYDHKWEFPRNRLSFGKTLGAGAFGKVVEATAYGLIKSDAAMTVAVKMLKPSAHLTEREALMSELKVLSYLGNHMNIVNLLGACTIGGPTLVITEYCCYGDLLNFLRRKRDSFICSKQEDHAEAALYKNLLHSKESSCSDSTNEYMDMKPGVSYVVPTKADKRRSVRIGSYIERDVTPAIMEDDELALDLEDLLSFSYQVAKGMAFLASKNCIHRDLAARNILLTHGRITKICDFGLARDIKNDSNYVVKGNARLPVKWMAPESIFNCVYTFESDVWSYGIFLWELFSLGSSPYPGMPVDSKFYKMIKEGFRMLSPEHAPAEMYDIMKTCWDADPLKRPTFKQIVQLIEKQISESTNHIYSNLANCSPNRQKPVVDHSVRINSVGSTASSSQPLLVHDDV
Chain of Vascular endothelial growth factor receptor 2 (P35968 whole entry): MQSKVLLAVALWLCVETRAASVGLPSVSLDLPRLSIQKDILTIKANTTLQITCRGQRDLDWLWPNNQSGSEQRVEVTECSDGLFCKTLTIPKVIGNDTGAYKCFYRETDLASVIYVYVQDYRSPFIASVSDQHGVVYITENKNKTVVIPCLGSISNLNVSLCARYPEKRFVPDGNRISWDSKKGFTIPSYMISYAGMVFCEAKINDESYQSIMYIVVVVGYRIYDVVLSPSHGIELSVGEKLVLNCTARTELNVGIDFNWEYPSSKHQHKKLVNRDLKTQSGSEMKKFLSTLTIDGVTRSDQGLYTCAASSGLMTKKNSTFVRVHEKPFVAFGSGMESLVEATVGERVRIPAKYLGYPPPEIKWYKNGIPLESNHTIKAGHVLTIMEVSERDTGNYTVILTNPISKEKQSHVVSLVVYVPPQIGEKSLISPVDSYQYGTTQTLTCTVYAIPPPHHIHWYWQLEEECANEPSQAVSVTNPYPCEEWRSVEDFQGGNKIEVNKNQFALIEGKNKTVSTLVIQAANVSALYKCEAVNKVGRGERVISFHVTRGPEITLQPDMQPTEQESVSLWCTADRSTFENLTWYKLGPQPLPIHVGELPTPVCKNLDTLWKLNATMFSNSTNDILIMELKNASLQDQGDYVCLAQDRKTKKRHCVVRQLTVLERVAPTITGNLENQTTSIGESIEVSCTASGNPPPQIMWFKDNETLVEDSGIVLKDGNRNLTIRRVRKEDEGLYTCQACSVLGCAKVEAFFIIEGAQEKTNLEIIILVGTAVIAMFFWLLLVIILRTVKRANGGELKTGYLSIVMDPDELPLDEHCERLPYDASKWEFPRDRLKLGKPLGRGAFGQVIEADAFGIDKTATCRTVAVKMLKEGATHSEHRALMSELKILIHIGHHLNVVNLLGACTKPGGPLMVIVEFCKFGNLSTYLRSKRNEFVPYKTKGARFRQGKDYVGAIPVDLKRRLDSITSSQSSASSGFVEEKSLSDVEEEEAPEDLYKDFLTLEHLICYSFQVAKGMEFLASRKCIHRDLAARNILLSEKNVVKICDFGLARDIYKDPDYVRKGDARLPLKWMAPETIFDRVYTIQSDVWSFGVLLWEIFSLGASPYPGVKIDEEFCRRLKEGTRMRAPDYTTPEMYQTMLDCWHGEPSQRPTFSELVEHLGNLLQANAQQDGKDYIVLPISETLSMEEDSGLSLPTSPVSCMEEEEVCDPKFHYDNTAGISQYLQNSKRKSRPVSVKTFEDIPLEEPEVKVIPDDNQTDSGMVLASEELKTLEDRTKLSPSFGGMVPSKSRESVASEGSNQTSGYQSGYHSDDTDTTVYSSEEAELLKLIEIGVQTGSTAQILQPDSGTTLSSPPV

Compound: Cc1[nH]c2c(c1C(=O)NCCc1ccccn1)CCC/C2=C1/C(=O)Nc2ccc(F)cc21
IC50 [1]: 37.7 nM | IC50 [2]: 161 nM | IC50 [3]: 11.4 nM

Compound: CCN(CC)CCNC(=O)c1c(C)[nH]c2c1CCC/C2=C1/C(=O)Nc2cccc(F)c21
IC50 [1]: 43.1 nM | IC50 [2]: 62.1 nM | IC50 [3]: 15 nM

Compound: CCN(CC)CCNC(=O)c1c(C)[nH]c2c1CCC/C2=C1/C(=O)Nc2ccc(OC)cc21
IC50 [1]: 35.5 nM | IC50 [2]: 101 nM | IC50 [3]: 24.6 nM

Compound: CCN(CC)CCNC(=O)c1c(C)[nH]c2c1CCC/C2=C1/C(=O)Nc2ccc(C(=O)OC)cc21
IC50 [1]: 256 nM | IC50 [2]: 70.3 nM | IC50 [3]: 167 nM

Compound: Cc1[nH]c2c(c1C(=O)NCCCN1CCCC1)CCC/C2=C1/C(=O)Nc2ccc(F)cc21
IC50 [1]: 10.7 nM | IC50 [2]: 64.8 nM | IC50 [3]: 3.8 nM

Compound: CCN(CC)CCNC(=O)c1c(C)[nH]c2c1CCC/C2=C1/C(=O)Nc2ccccc21
Ratio IC50 [4]: 7 | IC50 [5]: 7730 nM | IC50 [6]: 3560 nM | IC50 [2]: 89.9 nM | IC50 [3]: 9.4 nM | IC50 [7]: 540 nM | IC50 [8]: 6730 nM | IC50 [9]: 520 nM

Compound: CCN(CC)CCNC(=O)c1c(C)[nH]c2c1CCC/C2=C1/C(=O)Nc2c(F)cccc21
IC50 [1]: 181 nM | IC50 [2]: 260 nM | IC50 [3]: 112 nM

Compound: Cc1[nH]c2c(c1C(=O)N1CCC[C@H]1CN1CCCC1)CCC/C2=C1/C(=O)Nc2ccc(F)cc21
IC50 [1]: 8.5 nM | IC50 [2]: 118 nM | IC50 [3]: 11.8 nM

Compound: CCN(CC)CCNC(=O)c1c(C)[nH]c(/C=C2\C(=O)Nc3ccc(F)cc32)c1C [SUNITINIB]
IC50 [5]: 5610 nM | IC50 [6]: 2440 nM | IC50 [7]: 1470 nM | IC50 [8]: 4780 nM | IC50 [9]: 3630 nM

Compound: Cc1[nH]c2c(c1C(=O)NCCN1CCCC1)CCC/C2=C1/C(=O)Nc2ccc(F)cc21
IC50 [1]: 7.4 nM | IC50 [2]: 41.6 nM | IC50 [3]: 9.7 nM

Compound: CCN(CC)CCNC(=O)c1c(C)[nH]c2c1CCC/C2=C1/C(=O)Nc2ccc(S(=O)(=O)N(CC)CC)cc21
IC50 [1]: 398 nM | IC50 [2]: 396 nM | IC50 [3]: 330 nM

Compound: CCN(CC)CCNC(=O)c1c(C)[nH]c2c1CCC/C2=C1/C(=O)Nc2ccc(F)cc21 [TAFETINIB]
bioavailability [10]: 90% | IC50 [11]: 1.3 nM | IC50 [12]: 1.3 nM | IC50 [5]: 7270 nM | IC50 [6]: 3310 nM | IC50 [7]: 1200 nM | IC50 [8]: 6110 nM | IC50 [9]: 520 nM

Compound: Cc1[nH]c2c(c1C(=O)N1CCC(N3CCCCC3)CC1)CCC/C2=C1/C(=O)Nc2ccc(F)cc21
IC50 [1]: 7.8 nM | IC50 [2]: 40.7 nM | IC50 [3]: 8 nM

Continued by falling IC50 [2], values first:

IC50 [1]: 2.1 nM | IC50 [2]: 40.1 nM | IC50 [3]: 1.1 nM
Compound: Cc1[nH]c2c(c1C(=O)N1CCOCC1)CCC/C2=C1/C(=O)Nc2ccc(F)cc21

IC50 [1]: 6.6 nM | IC50 [2]: 22.7 nM | IC50 [3]: 3 nM
Compound: Cc1[nH]c2c(c1C(=O)NCCN(C)C)CCC/C2=C1/C(=O)Nc2ccc(F)cc21

IC50 [1]: 9.9 nM | IC50 [2]: 21.3 nM | IC50 [3]: 2.7 nM
Compound: CCN(CC)CCCNC(=O)c1c(C)[nH]c2c1CCC/C2=C1/C(=O)Nc2ccc(F)cc21

IC50 [1]: 5.8 nM | IC50 [2]: 19.4 nM | IC50 [3]: 4.3 nM
Compound: Cc1[nH]c2c(c1C(=O)NCCN1CCCCC1)CCC/C2=C1/C(=O)Nc2ccc(F)cc21

IC50 [1]: 4.1 nM | IC50 [2]: 19.3 nM | IC50 [3]: 2.5 nM
Compound: CCN(CC)CC(O)CNC(=O)c1c(C)[nH]c2c1CCC/C2=C1/C(=O)Nc2ccc(F)cc21 (configuration not stated)

IC50 [1]: 5.7 nM | IC50 [2]: 18 nM | IC50 [3]: 1 nM
Compound: Cc1[nH]c2c(c1C(=O)NCCCN1CCOCC1)CCC/C2=C1/C(=O)Nc2ccc(F)cc21

IC50 [1]: 4.1 nM | IC50 [2]: 15.6 nM | IC50 [3]: 2.3 nM
Compound: CCN(CC)CCNC(=O)c1c(C)[nH]c2c1CCC/C2=C1/C(=O)Nc2ccc(C)cc21

IC50 [1]: 6.9 nM | IC50 [2]: 13.3 nM | IC50 [3]: 25.7 nM
Compound: CCN(CC)CCNC(=O)c1c(C)[nH]c2c1CCC/C2=C1/C(=O)Nc2ccc([N+](=O)[O-])cc21

IC50 [1]: 2 nM | IC50 [2]: 13.2 nM | IC50 [3]: 1.6 nM
Compound: Cc1[nH]c2c(c1C(=O)NCCN1CCOCC1)CCC/C2=C1/C(=O)Nc2ccc(F)cc21

IC50 [1]: 1.4 nM | IC50 [2]: 12.7 nM | IC50 [3]: 1.1 nM
Compound: Cc1[nH]c2c(c1C(=O)NCCO)CCC/C2=C1/C(=O)Nc2ccc(F)cc21

IC50 [5]: 3140 nM | IC50 [1]: 2.7 nM | IC50 [2]: 12.1 nM | IC50 [3]: 2.6 nM | IC50 [7]: 6480 nM | IC50 [8]: 2030 nM | IC50 [9]: 1950 nM
Compound: CCN(CC)CCNC(=O)c1c(C)[nH]c2c1CCC/C2=C1/C(=O)Nc2ccc(Cl)cc21
IC50 [6]: 1830 nM

IC50 [1]: 2.3 nM | IC50 [2]: 7.6 nM | IC50 [3]: 3.9 nM
Compound: CCN(CC)CCNC(=O)c1c(C)[nH]c2c1CCC/C2=C1/C(=O)Nc2ccc(Br)cc21

Source: ChEMBL document CHEMBL2429742, “Design, synthesis, and biological evaluation of novel 3-pyrrolo[b]cyclohexylene-2-dihydroindolinone derivatives as potent receptor tyrosine kinase inhibitors” (Bioorg Med Chem Lett, 2013)
